Values after ≈ are worked out from the molar mass of the structure shown.
Experiments:
Renin (Homo sapiens) = target: T1, Renin (Homo sapiens) (UniProt P00797); test: (§1) Inhibition of human recombinant renin expressed in FreeStyle 293 expression system at 100 uM using FITC-epsilonAcp-Asp-Arg-Val-Tyr-Ile-His-Pro-Phe-His-Leu-Val-Ile-His-Asn-Arg-NH2 as substrate preincubated for 15 mins followed by substrate addition measured after 30 mins by microchip type capillary electrophoresis method relative to control
T1 sequence (whole entry): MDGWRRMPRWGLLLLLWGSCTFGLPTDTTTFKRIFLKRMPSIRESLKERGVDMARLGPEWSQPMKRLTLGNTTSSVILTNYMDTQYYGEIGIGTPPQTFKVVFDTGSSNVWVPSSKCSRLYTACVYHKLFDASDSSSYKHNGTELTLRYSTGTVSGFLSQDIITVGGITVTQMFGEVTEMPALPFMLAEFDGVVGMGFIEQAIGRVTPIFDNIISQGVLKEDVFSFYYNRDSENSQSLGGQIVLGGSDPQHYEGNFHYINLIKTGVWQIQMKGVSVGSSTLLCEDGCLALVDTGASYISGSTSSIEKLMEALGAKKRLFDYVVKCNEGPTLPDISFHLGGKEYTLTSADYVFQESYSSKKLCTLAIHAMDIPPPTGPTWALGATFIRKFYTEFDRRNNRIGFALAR

[1] = Aqueous solubility of the compound in pH 6.8 Japanese pharmacopoeia second fluid by HPLC analysis; format: ADME
[2] = Intrinsic clearance in human liver microsomes assessed per mg of protein at 1 umol/l after 15 to 30 mins in presence of NADPH-generating system by LC/MS/MS analysis; format: ADME; conditions: read-out: CLH
CYP3A4 = CYP3A4 (Homo sapiens, UniProt P08684); test: Inhibition of CYP3A4 in human liver microsomes using testosterone as substrate assessed as 6beta-hydroxytestosterone formation at 10 uM after 60 mins by LC/MS/MS analysis relative to control; format: ADME; conditions: probe testosterone
Sequence of CYP3A4 (P08684 whole entry): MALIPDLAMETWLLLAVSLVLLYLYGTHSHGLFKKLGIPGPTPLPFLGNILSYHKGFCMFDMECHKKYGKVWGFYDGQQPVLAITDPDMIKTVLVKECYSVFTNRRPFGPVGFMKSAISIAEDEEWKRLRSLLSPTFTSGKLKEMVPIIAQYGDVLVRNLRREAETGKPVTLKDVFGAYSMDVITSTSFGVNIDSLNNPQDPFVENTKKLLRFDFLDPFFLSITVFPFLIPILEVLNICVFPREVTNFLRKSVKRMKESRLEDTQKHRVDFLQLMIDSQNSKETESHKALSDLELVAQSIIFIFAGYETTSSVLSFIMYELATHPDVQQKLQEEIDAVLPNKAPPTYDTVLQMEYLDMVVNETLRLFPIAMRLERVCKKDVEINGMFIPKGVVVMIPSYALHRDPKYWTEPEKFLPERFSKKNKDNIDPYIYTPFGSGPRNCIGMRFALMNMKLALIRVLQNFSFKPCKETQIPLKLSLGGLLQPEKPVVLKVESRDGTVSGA

[3] = Cytotoxicity against human HepG2 cells assessed as ATP contents at 30 uM after 1 day by ATPLiteTM-M assay relative to control; format: toxicity, cell-based; conditions: read-out: Activity
hERG (KCNH2) = hERG (KCNH2) (Homo sapiens, UniProt Q12809); test: Inhibition of human ERG expressed in CHO cells assessed as suppression of peak tail currents incubated for 5 mins by patch clamp method; format: cell-based; conditions: CHO cells that express human ERG
Sequence of hERG (KCNH2) (Q12809 whole entry): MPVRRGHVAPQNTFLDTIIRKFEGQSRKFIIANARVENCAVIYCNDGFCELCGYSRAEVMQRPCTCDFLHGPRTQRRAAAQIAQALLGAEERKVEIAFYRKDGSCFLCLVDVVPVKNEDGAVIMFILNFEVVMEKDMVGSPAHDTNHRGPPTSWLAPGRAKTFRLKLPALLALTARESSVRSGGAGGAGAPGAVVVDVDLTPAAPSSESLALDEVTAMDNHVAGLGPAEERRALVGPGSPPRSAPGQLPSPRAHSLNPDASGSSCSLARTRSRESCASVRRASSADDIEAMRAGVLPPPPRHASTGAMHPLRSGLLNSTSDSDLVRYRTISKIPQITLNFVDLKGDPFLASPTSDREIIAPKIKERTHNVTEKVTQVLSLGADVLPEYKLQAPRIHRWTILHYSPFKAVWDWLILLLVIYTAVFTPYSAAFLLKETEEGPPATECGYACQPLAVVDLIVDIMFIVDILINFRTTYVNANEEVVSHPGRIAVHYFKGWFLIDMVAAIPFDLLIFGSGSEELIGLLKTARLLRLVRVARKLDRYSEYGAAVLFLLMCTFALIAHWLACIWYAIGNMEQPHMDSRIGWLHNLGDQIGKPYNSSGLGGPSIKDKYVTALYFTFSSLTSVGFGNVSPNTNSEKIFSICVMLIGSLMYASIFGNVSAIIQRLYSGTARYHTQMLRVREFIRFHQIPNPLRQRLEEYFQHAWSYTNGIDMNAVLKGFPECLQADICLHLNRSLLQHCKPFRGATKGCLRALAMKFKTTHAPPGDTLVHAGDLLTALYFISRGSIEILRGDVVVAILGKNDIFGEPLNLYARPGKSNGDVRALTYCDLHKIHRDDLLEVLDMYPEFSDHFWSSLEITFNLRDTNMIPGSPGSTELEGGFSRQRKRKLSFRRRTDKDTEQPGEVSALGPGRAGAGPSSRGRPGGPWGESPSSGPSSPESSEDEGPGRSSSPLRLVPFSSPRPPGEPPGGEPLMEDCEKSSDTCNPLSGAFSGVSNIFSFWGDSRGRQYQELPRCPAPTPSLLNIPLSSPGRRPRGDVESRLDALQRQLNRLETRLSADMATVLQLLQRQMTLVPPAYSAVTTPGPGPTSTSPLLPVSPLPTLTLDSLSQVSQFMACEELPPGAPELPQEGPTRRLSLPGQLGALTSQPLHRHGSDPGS

Renin = target: T2, Renin (Homo sapiens, UniProt P00797); test: as §1, with “system” for “system at 100 uM”, “method” for “method relative to control”
T2 sequence (P00797 whole entry): T1 sequence (whole entry)

`Clc1cncc(NCc2ccco2)n1` showed an inhibition (Renin (Homo sapiens)) of 65%.

Work on `Cc1ccc(C(=O)NC(C)(C)c2ccccc2)c(NCc2ccco2)n1` yielded an inhibition (Renin (Homo sapiens)) of under 30%.

Compound `Cc1ccc(C(=O)N2CCCCCC2)c(NCc2ccco2)n1` has an inhibition (Renin (Homo sapiens)) of 70%, a solubility [1] of 50 µg/mL (≈ 160 µM) and a microsomal CLint at 1 µM [2] of 85 µL/min/mg. The inhibition at 1 h, 10 µM (CYP3A4) was 35.6%, the viability at 24 h, 30 µM [3] was 91.6% and the inhibition at 5 min (hERG (KCNH2)) was 7.5%.

Work on `CCN(CC)C(=O)c1ccc(C)nc1NCc1ccco1` yielded an inhibition (Renin (Homo sapiens)) of 31%.

For `CCC1CCCCN1C(=O)c1ccc(C)nc1NCc1ccco1` (stereo not drawn), the IC50 (Renin) was 11 µM and the inhibition (Renin (Homo sapiens)) was 86%.

`c1coc(CNc2ncnc3sc4c(c23)CCCC4)c1` showed a solubility [1] of 5.2 µg/mL (≈ 18.2 µM), a microsomal CLint at 1 µM [2] of 187 µL/min/mg and an inhibition at 1 h, 10 µM (CYP3A4) of 70.2%. For the same compound, the viability at 24 h, 30 µM [3] was 31.4% and the inhibition at 5 min (hERG (KCNH2)) was 62.8%.

`Nc1ncnc2sc3c(c12)CCCC3` showed an IC50 (Renin) of over 300 µM.

`NCc1ccco1` showed an IC50 (Renin) of over 300 µM.
